In US9447084B2, “Antiparisitic and pesticidal isoxazoline compounds” (MERIAL LIMITED, priority 2013, dated 2016):

system: Ctenocephalides felis; test: Efficacy of compounds against fleas following ingestion (membrane feeding on treated bovine blood); type: in vivo; conditions: 10 adult Ctenocephalides felis feeding on treated bovine blood; assessment at 72 hours after application vs untreated controls
Method: A cylindrical test container was filled with 10 adult Ctenocephalides felis. A cylindrical well was closed on one end with a self-sealing flexible film and placed on top of the test container in such a position that the fleas could pierce the film and feed on the contents of the cylinder. The test compound solution was then pipetted into bovine blood and added to the well. The container part with the Ctenocephalides felis was held at 20-22° C. and 40-60% relative humidity while the well part containing the treated blood was held at 37° C. and 40-60% relative humidity. Assessment was performed at 72 hours after application in comparison with untreated controls. […] In this regard, the efficacy of the compounds of the invention having at least one carbonyl group in Ring D against fleas was compared with the efficacy of corresponding compounds that are not substituted with a carbonyl group in Ring D using the method of Example 19.

CCN1CCN(C(=O)c2ccc(C3=NOC(c4cc(Cl)cc(Cl)c4)(C(F)(F)F)C3)cc2C)C1=O (stereo not drawn) [Compound 54] and Cc1cc(C2=NOC(c3cc(Cl)cc(Cl)c3)(C(F)(F)F)C2)ccc1C(=O)NN1CCN(CC(F)(F)F)C1=O (stereo not drawn) [Compound 67, 4-[5-(3,5-dichlorophenyl)-5-(trifluoromethyl)-4,5-dihydro-1,2-oxazol-3-yl]-2-methyl-N-[2-oxo-3-(2,2,2-trifluoroethyl)imidazolidin-1-yl]benzamide] cannot be ordered by EC50: no more than 10 mg/L for the first, no more than 1 mg/L for the second.

Cc1cc(C2=NOC(c3cc(Cl)cc(C(F)(F)F)c3)(C(F)(F)F)C2)ccc1C(=O)NN1CCCN(CC(F)(F)F)C1=O (stereo not drawn) [Compound 70] and O=C(NN1CCCN(CC(F)(F)F)C1=O)c1ccc(C2=NOC(c3cc(Cl)cc(C(F)(F)F)c3)(C(F)(F)F)C2)cc1C(F)(F)F (stereo not drawn) [Compound 97, 4-[5-[3-chloro-5-(trifluoromethyl)phenyl]-5-(trifluoromethyl)-4,5-dihydro-1,2-oxazol-3-yl]-N-[2-oxo-3-(2,2,2-trifluoroethyl)-1,3-diazinan-1-yl]-2-(trifluoromethyl)benzamide] cannot be ordered by EC50: no more than 1 mg/L for the first, no more than 1 mg/L for the second.

Cc1cc(C2=NOC(c3cc(Cl)cc(C(F)(F)F)c3)(C(F)(F)F)C2)ccc1C(=O)N1CC(=O)N(CC(F)(F)F)C1 (stereo not drawn) [Compound 71, 1-[(4-[5-[3-chloro-5-(trifluoromethyl)phenyl]-5-(trifluoromethyl)-4,5-dihydro-1,2-oxazol-3-yl]-2-methylphenyl)carbonyl]-3-(2,2,2-trifluoroethyl)imidazolidin-4-one] and Cc1cc(C2=NOC(c3cc(Cl)cc(C(F)(F)F)c3)(C(F)(F)F)C2)ccc1C(=O)N1CC(=O)N(CCC(F)(F)F)C1 (stereo not drawn) [Compound 80, 1-[(4-[5-[3-chloro-5-(trifluoromethyl)phenyl]-5-(trifluoromethyl)-4,5-dihydro-1,2-oxazol-3-yl]-2-methylphenyl)carbonyl]-3-(3,3,3-trifluoropropyl)imidazolidin-4-one] cannot be ordered by EC50: no more than 0.1 mg/L for the first, no more than 0.1 mg/L for the second.

O=C(NN1CCCN(CC(F)(F)F)C1=O)c1ccc(C2=NOC(c3cc(C(F)(F)F)cc(C(F)(F)F)c3)(C(F)(F)F)C2)cc1C(F)(F)F (stereo not drawn) [Compound 90, 4-[5-[3,5-bis(trifluoromethyl)phenyl]-5-(trifluoromethyl)-4,5-dihydro-1,2-oxazol-3-yl]-N-[2-oxo-3-(2,2,2-trifluoroethyl)-1,3-diazinan-1-yl]-2-(trifluoromethyl)benzamide] and O=C(NN1CCCN(CC(F)(F)F)C1=O)c1ccc(C2=NOC(c3cc(Cl)cc(Cl)c3)(C(F)(F)F)C2)cc1C(F)(F)F (stereo not drawn) [Compound 91, 4-[5-(3,5-dichlorophenyl)-5-(trifluoromethyl)-4,5-dihydro-1,2-oxazol-3-yl]-N-[2-oxo-3-(2,2,2-trifluoroethyl)-1,3-diazinan-1-yl]-2-(trifluoromethyl)benzamide] cannot be ordered by EC50: no more than 1 mg/L for the first, no more than 1 mg/L for the second.

O=C(c1ccc(C2=NOC(c3cc(Cl)cc(Cl)c3)(C(F)(F)F)C2)cc1C(F)(F)F)N1CC(=O)N(CC(F)(F)F)C(=O)C1 (stereo not drawn) [Compound 92, 4-([4-[5-(3,5-dichlorophenyl)-5-(trifluoromethyl)-4,5-dihydro-1,2-oxazol-3-yl]-2-(trifluoromethyl)phenyl]carbonyl)-1-(2,2,2-trifluoroethyl)piperazine-2,6-dione] and O=C1CN(C(=O)c2ccc(C3=NOC(c4cc(Cl)cc(Cl)c4)(C(F)(F)F)C3)cc2C(F)(F)F)CN1CC(F)(F)F (stereo not drawn) [Compound 93, 1-([4-[5-(3,5-dichlorophenyl)-5-(trifluoromethyl)-4,5-dihydro-1,2-oxazol-3-yl]-2-(trifluoromethyl)phenyl]carbonyl)-3-(2,2,2-trifluoroethyl)imidazolidin-4-one] cannot be ordered by EC50: no more than 10 mg/L for the first, no more than 1 mg/L for the second.

CCCN1C(=O)CN(C(=O)c2ccc(C3=NOC(c4cc(Cl)cc(C(F)(F)F)c4)(C(F)(F)F)C3)cc2C(F)(F)F)CC1=O (stereo not drawn) [Compound 95, 4-[(4-[5-[3-chloro-5-(trifluoromethyl)phenyl]-5-(trifluoromethyl)-4,5-dihydro-1,2-oxazol-3-yl]-2-(trifluoromethyl)phenyl)carbonyl]-1-propylpiperazine-2,6-dione] and O=C1CN(C(=O)c2ccc(C3=NOC(c4cc(Cl)cc(C(F)(F)F)c4)(C(F)(F)F)C3)cc2C(F)(F)F)CN1CCC(F)(F)F (stereo not drawn) [Compound 98, 1-[(4-[5-[3-chloro-5-(trifluoromethyl)phenyl]-5-(trifluoromethyl)-4,5-dihydro-1,2-oxazol-3-yl]-2-(trifluoromethyl)phenyl)carbonyl]-3-(3,3,3-trifluoropropyl)imidazolidin-4-one] cannot be ordered by EC50: no more than 10 mg/L for the first, no more than 1 mg/L for the second.

O=C1CN(C(=O)c2ccc(C3=NOC(c4cc(Cl)cc(C(F)(F)F)c4)(C(F)(F)F)C3)cc2C(F)(F)F)CN1CC(F)(F)F (stereo not drawn) [Compound 96, 1-[(4-[5-[3-chloro-5-(trifluoromethyl)phenyl]-5-(trifluoromethyl)-4,5-dihydro-1,2-oxazol-3-yl]-2-(trifluoromethyl)phenyl)carbonyl]-3-(2,2,2-trifluoroethyl)imidazolidin-4-one] and O=C1CN(C(=O)c2ccc(C3=NOC(c4cc(Cl)cc(C(F)(F)F)c4)(C(F)(F)F)C3)cc2CC(F)(F)F)CN1CCC(F)(F)F (stereo not drawn) [Compound 99, 1-[(4-[5-[3-chloro-5-(trifluoromethyl)phenyl]-5-(trifluoromethyl)-4,5-dihydro-1,2-oxazol-3-yl]-2-(2,2,2-trifluoroethyl)phenyl)carbonyl]-3-(3,3,3-trifluoropropyl)imidazolidin-4-one] cannot be ordered by EC50: no more than 1 mg/L for the first, no more than 1 mg/L for the second.

Cc1cc(C2=NOC(c3cc(Cl)cc(C(F)(F)F)c3)(C(F)(F)F)C2)ccc1C(=O)N1CCN(CCC(F)(F)F)C1 (stereo not drawn) [Compound 100] and Cc1cc(C2=NOC(c3cc(Cl)cc(C(F)(F)F)c3)(C(F)(F)F)C2)ccc1C(=O)N1CC(=O)N(CS(C)(=O)=O)C1 (stereo not drawn) [Compound 114, 1-[(4-[5-[3-Chloro-5-(trifluoromethyl)phenyl]-5-(trifluoromethyl)-4,5-dihydro-1,2-oxazol-3-yl]-2-methylphenyl)carbonyl]-3-(methanesulfonylmethyl)imidazolidin-4-one] cannot be ordered by EC50: no more than 10 mg/L for the first, no more than 10 mg/L for the second.

O=C1CN(C(=O)c2ccc(C3=NOC(c4cc(Cl)cc(C(F)(F)F)c4)(C(F)(F)F)C3)c3ccccc23)CN1CCC(F)(F)F (stereo not drawn) [Compound 112, 1-[(4-[5-[3-chloro-5-(trifluoromethyl)phenyl]-5-(trifluoromethyl)-4,5-dihydro-1,2-oxazol-3-yl]naphthalen-1-yl)carbonyl]-3-(3,3,3-trifluoropropyl)imidazolidin-4-one] and Cc1cc(C2=NOC(c3cc(Cl)c(F)c(Cl)c3)(C(F)(F)F)C2)ccc1C(=O)N1CC(=O)N(CCC(F)(F)F)C1 (stereo not drawn) [Compound 115, 1-([4-[5-(3,5-dichloro-4-fluorophenyl)-5-(trifluoromethyl)-4,5-dihydro-1,2-oxazol-3-yl]-2-methylphenyl]carbonyl)-3-(3,3,3-trifluoropropyl)imidazolidin-4-one] cannot be ordered by EC50: no more than 0.1 mg/L for the first, no more than 0.1 mg/L for the second.

same assay, conditions: efficacy against fleas, method of Example 19; compounds with vs without carbonyl group in Ring D

Cc1cc(C2=NOC(c3cc(Cl)cc(Cl)c3)(C(F)(F)F)C2)ccc1C(=O)N1CC(=O)N(CC(F)(F)F)C(=O)C1 (stereo not drawn) was tested, and the “EC50 (ppm)” value was less than 0.1 ppm.
With Cc1cc(C2=NOC(c3cc(Cl)cc(Cl)c3)(C(F)(F)F)C2)ccc1C(=O)N1CC(=O)NC(=O)C1 (stereo not drawn) the “EC50 (ppm)” value was less than 0.1 ppm.
With Cc1cc(C2=NOC(c3cc(Cl)cc(C(F)(F)F)c3)(C(F)(F)F)C2)ccc1C(=O)N1CC(=O)N(CCC(F)(F)F)C1 (stereo not drawn) [drawing 155] the “EC50 (ppm)” value was less than 0.1 ppm.
Cc1cc(C2=NOC(c3cc(Cl)cc(C(F)(F)F)c3)(C(F)(F)F)C2)ccc1C(=O)N1CCN(CCC(F)(F)F)C1 (stereo not drawn) [drawing 156, reference compound] was tested, and the “EC50 (ppm)” value was 1-10 ppm.
Cc1cc(C2=NOC(c3cc(Cl)cc(Cl)c3)(C(F)(F)F)C2)ccc1C(=O)N1CCN(CC(F)(F)F)CC1 (stereo not drawn) [reference compound] was tested, and the “EC50 (ppm)” value was 10-20 ppm.
Cc1cc(C2=NOC(c3cc(Cl)cc(Cl)c3)(C(F)(F)F)C2)ccc1C(=O)N1CCNCC1 (stereo not drawn) [reference compound] was tested, and the “EC50 (ppm)” value was 1-10 ppm.
